Tests used:
Assay type in all cases: cell-based, canine
[1] = test system: catalase (CAT); assay: Enzymatic activity of catalase in treated cbTCC cells (Cayman kit, Purpald); conditions: 24 hours, mean ± standard deviation, control 11.20 ± 0.43
Description: Treatments were done in at least triplicates. […] The enzymatic activity of catalase was determined using assay kits from Cayman Chemical Co., Ann Arbor, Mich., according to manufacturer's directions. The assay utilized the peroxidatic function of CAT for determination of enzymatic activity, based on the reaction of the enzyme with methanol in the presence of an optimal concentration of H2O2. […] Purpald specifically forms a bicyclic heterocycle with aldehydes, which upon oxidation changes from colorless to a purple color. The absorbance was read at 540 nm using a spectrophotometric plate reader. Results were calculated from standard curve from known samples and by using the provided equations. From that, the enzymatic activity of CAT was derived as nmol/min/ml CAT. Samples were done in triplicate. A one-tail t-test assuming equal variance was performed to determine significance.

[2] = test system: MnSOD; assay: Quantitative PCR gene expression of MnSOD in cbTCC cells; conditions: 24 hours, normalized to Cyclophilin A, mean ± SEM, control 1.28 ± 0.05
[3] = test system: CAT; assay: Quantitative PCR gene expression of CAT in cbTCC cells; conditions: 24 hours, normalized to Cyclophilin A, mean ± SEM, control 1.86 ± 0.11
[4] = test system: Cu/ZnSOD; assay: Quantitative PCR gene expression of Cu/ZnSOD in cbTCC cells; conditions: 24 hours, normalized to Cyclophilin A, mean ± SEM, control 1.11 ± 0.02
[5] = test system: PTHrP; assay: Quantitative PCR gene expression of PTHrP in cbTCC cells; conditions: 24 hours, normalized to Cyclophilin A, mean ± SEM, control 1.35 ± 0.09
[6] = test system: glutathione peroxidase (GPX); assay: Western blot analysis of GPX protein expression in cbTCC cells; conditions: 10^−9M, 24 hours, normalized to β-actin, control = 100 percent, ± standard deviation
Description: (§1) Treatments were done in at least triplicates. […] Harvested cells were homogenized, and analyzed for the production of manganese superoxide dismutase (MnSOD), copper/zinc superoxide dismutase (Cu/ZnSOD), catalase (CAT), and glutathione peroxidase (GPX). Cell lysates were collected after centrifugation, and total protein was quantitated. […] Transblotted membranes were blocked overnight at 4° C. with the addition of 5% skim milk in Tris-buffered saline (TBS). The membranes were cut at the molecular weight of 37 kD (green band) and 25 kD (pink band). The top part of the membranes were stained for CAT, GPX, and β-actin, and the bottom part for MnSOD and Cu/ZnSOD. The primary antibodies for specific proteins were used at the following dilutions: […] Secondary antibodies are their respective IgG-HRP conjugates used at 1:2000. […] CAT, MnSOD and Cu/ZnSOD, n=7; GPX, n=4. Prior to transforming data as percent of control, a one-tail paired t-test assuming equal variance was performed to determine significance.

[7] = test system: copper/zinc superoxide dismutase (Cu/ZnSOD); assay: Western blot analysis of Cu/ZnSOD protein expression in cbTCC cells; conditions: 10^−9M, 24 hours, normalized to β-actin, control = 100 percent, ± standard deviation
Description: as §1

[8] = test system: VDR; assay: Quantitative PCR gene expression of VDR in cbTCC cells; conditions: 24 hours, normalized to Cyclophilin A, mean ± SEM, control 2.09 ± 0.19
[9] = test system: catalase (CAT); assay: Western blot analysis of catalase protein expression in cbTCC cells; conditions: 10^−9M, 24 hours, normalized to β-actin, control = 100 percent, ± standard deviation
Description: as §1

[10] = test system: manganese superoxide dismutase (MnSOD); assay: Western blot analysis of MnSOD protein expression in cbTCC cells; conditions: 10^−9M, 24 hours, normalized to β-actin, control = 100 percent, ± standard deviation
Description: as §1

| Compound | Enzymatic activity of catalase ([1]; 10^−9M) | MnSOD gene expression value by quantitative PCR ([2]; 10^−7 M) | MnSOD gene expression value by quantitative PCR ([2]; 10^−9 M) | Enzymatic activity of catalase ([1]; 10^−7M) | CAT gene expression value by quantitative PCR ([3]; 10^−7 M) | CAT gene expression value by quantitative PCR ([3]; 10^−9 M) | Cu/ZnSOD gene expression value by quantitative PCR ([4]; 10^−7 M) | Cu/ZnSOD gene expression value by quantitative PCR ([4]; 10^−9 M) | PTHrP gene expression value by quantitative PCR ([5]; 10^−7 M) | PTHrP gene expression value by quantitative PCR ([5]; 10^−9 M) | GPX protein expression, percent intensity of the protein band relative to the control [6] | Cu/ZnSOD protein expression, percent intensity of the protein band relative to the control [7] | VDR gene expression value by quantitative PCR ([8]; 10^−7 M) | VDR gene expression value by quantitative PCR ([8]; 10^−9 M) | Catalase protein expression, percent intensity of the protein band relative to the control [9] | MnSOD protein expression, percent intensity of the protein band relative to the control [10] |
| --- | --- | --- | --- | --- | --- | --- | --- | --- | --- | --- | --- | --- | --- | --- | --- | --- |
| C=C1C(=CC=C2CCCC3(C)C(C(C)CC#CC(C)(C)O)=CCC23)CC(O)CC1O (stereo not drawn) [Analog V, 1α,25-dihydroxy-16-ene-23-yne-vitamin D3] | 13.93 ± 0.53 nmol/min/mL | – | – | – | – | – | – | – | – | – | – | – | – | – | – | – |
| C=C1/C(=C\C=C2/CCC[C@]3(C)[C@@H]([C@H](C)CCCC(C)(C)O)CC[C@@H]23)C[C@@H](O)C[C@@H]1O [Calcitriol, 1α,25-dihydroxyvitamin D3] | 12.51 ± 0.42 nmol/min/mL | 1.05 ± 0.03 | 1.15 ± 0.04 | 12.24 ± 0.80 nmol/min/mL | 2.60 ± 0.11 | 2.13 ± 0.06 | 1.18 ± 0.03 | 1.16 ± 0.02 | 1.16 ± 0.05 | 1.36 ± 0.11 | – | – | – | – | – | – |
| C=C1/C(=C\C=C2/CCC[C@]3(C)[C@@H]([C@H](C)/C=C/C=C/C(O)(CC)CC)CC[C@@H]23)C[C@@H](O)C[C@@H]1O [Seocalcitol, 1α,25-dihydroxy-22,24-diene-24,26,27-trihomovitamin D] | 13.99 ± 0.99 nmol/min/mL | 1.11 ± 0.05 | 1.16 ± 0.05 | – | 2.66 ± 0.08 | 2.55 ± 0.13 | 1.17 ± 0.01 | 1.20 ± 0.07 | 1.20 ± 0.07 | 1.30 ± 0.02 | 81.85 ± 37.45% | 101.27 ± 26.41% | 1.99 ± 0.09 | 1.45 ± 0.10 | 162.68 ± 39.88% | 113.48 ± 20.56% |
